Like-named read-outs stand apart in the source and are kept apart here.
How the values were obtained:
[1] = test system: Key Broadleaf Weed and Crop Species; test: Post-emergent Test II herbicidal activity (Table 5); type: in vivo; conditions: post-emergence, 336 h, 14 days after application; for pest or weed control at 70 g/ha: application rate 70 g ai/ha; for pest or weed control at 140 g/ha: application rate 140 g ai/ha
Outline: (§1)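 Test species were raised 7–21 d under greenhouse conditions until reaching the first or second true leaf, sprayed with formulated compound at 187 L/ha, and kept subirrigated to avoid wash-off. Fourteen days later, damage was rated visually on a 0–100% scale against untreated plants.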

[2] = test system: Key Grass and Sedge Weeds as well as Grass Crops; test: Post-emergent Test II herbicidal activity (Table 6); type: in vivo; conditions: post-emergence, 336 h; for pest or weed control at 70 g/ha: 70 g ai/ha; for pest or weed control at 140 g/ha: 140 g ai/ha
Outline: as §1

[3] = ABUTH: velvetleaf (Abutilon theophrasti), read-out: Visual Growth Reduction (%) 14 Days After Application, ABUTH
[4] = AMARE: redroot pigweed (Amaranthus retroflexus), read-out: Visual Growth Reduction (%) 14 Days After Application, AMARE
[5] = BRSNN: oilseed-rape, canola (Brassica napus), read-out: Visual Growth Reduction (%) 14 Days After Application, BRSNN
[6] = CHEAL: lambsquarters (Chenopodium album), read-out: Visual Growth Reduction (%) 14 Days After Application, CHEAL
[7] = EPHHL: wild poinsettia (Euphorbia heterophylla), read-out: Visual Growth Reduction (%) 14 Days After Application, EPHHL
[8] = HELAN: sunflower (Helianthus annuus), read-out: Visual Growth Reduction (%) 14 Days After Application, HELAN
[9] = VIOTR: wild pansy (Viola tricolor), read-out: Visual Growth Reduction (%) 14 Days After Application, VIOTR
[10] = CYPES: yellow nutsedge (Cyperus esculentus), read-out: Visual Growth Reduction (%) 14 Days After Application, CYPES
[11] = DIGSA: crabgrass (Digitaria sanguinalis), read-out: Visual Growth Reduction (%) 14 Days After Application, DIGSA
[12] = ECHCG: barnyardgrass (Echinochloa crus-galli), read-out: Visual Growth Reduction (%) 14 Days After Application, ECHCG
[13] = ORYSA: rice (Oryza sativa), crop, read-out: Visual Growth Reduction (%) 14 Days After Application, ORYSA
[14] = SETFA: giant foxtail (Setaria faberi), read-out: Visual Growth Reduction (%) 14 Days After Application, SETFA
[15] = SORVU: grain sorghum (Sorghum vulgare), read-out: Visual Growth Reduction (%) 14 Days After Application, SORVU
[16] = TRZSS (wheat, Triticum aestivum), crop, read-out: Visual Growth Reduction (%) 14 Days After Application, TRZSS
[17] = ZEAMX: maize, corn (Zea mays), crop, read-out: Visual Growth Reduction (%) 14 Days After Application, ZEAMX

Structure (SMILES)	pest or weed control at 70 g/ha [1, 3] [%]	pest or weed control at 140 g/ha [1, 3] [%]	pest or weed control at 70 g/ha [1, 4] [%]	pest or weed control at 140 g/ha [1, 4] [%]	pest or weed control at 70 g/ha [1, 5] [%]	pest or weed control at 140 g/ha [1, 5] [%]	pest or weed control at 70 g/ha [1, 6] [%]	pest or weed control at 140 g/ha [1, 6] [%]	pest or weed control at 70 g/ha [1, 7] [%]	pest or weed control at 140 g/ha [1, 7] [%]	pest or weed control at 70 g/ha [1, 8] [%]	pest or weed control at 140 g/ha [1, 8] [%]	pest or weed control at 70 g/ha [1, 9] [%]	pest or weed control at 140 g/ha [1, 9] [%]	pest or weed control at 70 g/ha [2, 10] [%]	pest or weed control at 140 g/ha [2, 10] [%]	pest or weed control at 70 g/ha [2, 11] [%]	pest or weed control at 140 g/ha [2, 11] [%]	pest or weed control at 70 g/ha [2, 12] [%]	pest or weed control at 140 g/ha [2, 12] [%]	further results
Nc1cc(-c2ccc(I)cc2)nc(C(=O)O)c1Cl [Compound 4]	95 to 100	95 to 100	85 to 94	85 to 94	95 to 100	95 to 100	95 to 100	95 to 100	95 to 100	95 to 100	75 to 84	85 to 94	0 to 29	0 to 29	45 to 59	95 to 100	60 to 74	75 to 84	75 to 84	85 to 94	pest or weed control at 70 g/ha [2, 13]: 0 to 29%; pest or weed control at 140 g/ha [2, 13]: 0 to 29%; pest or weed control at 70 g/ha [2, 14]: 60 to 74%; pest or weed control at 140 g/ha [2, 14]: 60 to 74%; pest or weed control at 70 g/ha [2, 15]: 75 to 84%; pest or weed control at 140 g/ha [2, 15]: 75 to 84%; pest or weed control at 70 g/ha [2, 16]: 75 to 84%; pest or weed control at 140 g/ha [2, 16]: 75 to 84%; pest or weed control at 70 g/ha [2, 17]: 0 to 29%; pest or weed control at 140 g/ha [2, 17]: 0 to 29%
COC(=O)c1nc(-c2ccc(I)cc2)nc(N)c1OC [Compound 18]	75 to 84	75 to 84	0 to 29	0 to 29	75 to 84	95 to 100	85 to 94	95 to 100	95 to 100	95 to 100	95 to 100	95 to 100	0 to 29	45 to 59	95 to 100	95 to 100	0 to 29	30 to 44	0 to 29	45 to 59	pest or weed control at 70 g/ha [2, 13]: 0 to 29%; pest or weed control at 140 g/ha [2, 13]: 0 to 29%; pest or weed control at 70 g/ha [2, 14]: 0 to 29%; pest or weed control at 140 g/ha [2, 14]: 0 to 29%; pest or weed control at 70 g/ha [2, 15]: 30 to 44%; pest or weed control at 140 g/ha [2, 15]: 0 to 29%; pest or weed control at 70 g/ha [2, 16]: 30 to 44%; pest or weed control at 140 g/ha [2, 16]: 30 to 44%; pest or weed control at 70 g/ha [2, 17]: 95 to 100%; pest or weed control at 140 g/ha [2, 17]: 95 to 100%
